Results taken from patent US9394233B2, “ROS-activated compounds as selective anti-cancer therapeutics” (University of Cincinnati, priority 2012, dated 2016).

Legend:
[1] = system: ACHN; assay: Sulforhodamine B total protein content assay, ACHN; format: cell-based; details: Homo sapiens; ACHN renal cancer cells
Protocol: (§1) The sensitivity of renal cancer cells to treatment with compound 25 was investigated. Compound 25 was evaluated for effects on viability using a sulforhodamine B total protein content assay at the NCI Developmental Therapeutics Program. The method uses total protein content and was developed by Monks et al., Feasibility of a high-flux anticancer drug screen using a diverse panel of cultured human tumor cell lines, J. Natl. Cancer Inst. 83:757-66 (1991). Briefly, cells are treated with compound 25 and then fixed to the plate surface. The number of cells is proportional to the relative amount of protein as measured by sulforhodamine B. Seven renal cancer cell lines were examined: 786-0, A498, ACHN, CAKI-1, RXF 393, SN12C, and UO-31. Data at the NCI was then fit to sigmoid and the IC50 and fitting error determined

[2] = system: human CD34+ blood stem/progenitor cells; assay: Cytotoxicity, MTT assay on CD34+ blood stem/progenitor cells; format: cell-based; details: Homo sapiens, normal blood stem cells, read-out: IC50 against CD34+ blood stem/progenitor cells
Text: (§2) To assess the anti-cancer activity against AML, transformed cells were compared to closely related, non-transformed counterparts. In the case of AML, the generally accepted non-transformed cell of origin is the human CD34+ blood stem/progenitor cell. Assessing potency against normal blood stem cells is important since, without selective cytotoxicity, an agent will yield reduced efficacy and therapeutic potential. […] Therefore, a comparison of current agents and the ROS-activated compounds disclosed herein was carried out. (FIG. 3). Cytotoxicity was measured via MTT assay on CD34+ blood stem/progenitor cells (grey lines) and on the MA9.3 AML cell line (black lines), which was derived from the transformation of human CD34+ cells by introduction of the leukemia oncogene MLL-AF9.

[3] = system: MOLT-4; assay: NCI-60 Sulforhodamine B growth inhibition, MOLT-4; format: cell-based; details: Homo sapiens; MOLT-4, ALL model line
Protocol: (§3) Compounds 25 and 9 were evaluated for effects on the viability of the cell lines in the NCI-60 cell panel. […] Data is reported as growth inhibition GI50, rather than IC50, to reflect the change in cell counts relative to the starting number of cells.
(§4) Growth inhibition pattern induced by 25 and 9 based on the type of cancer was also analyzed. […] The majority of leukemia and renal cancer cell lines were above the median, indicating enhanced sensitivity to ROS-activating compounds. The current results further substantiate renal carcinoma as a potential target.

[4] = system: HeLa cells; assay: HeLa cell viability, MTT assay; format: cell-based; details: Homo sapiens, 50% reduction in percent of viable HeLa cells, read-out: IC50 against HeLa Cells
Protocol: Table 1 sets forth ROS-Activated compounds of the present invention, together with their IC50 values corresponding to a 50% reduction in the percent of viable HeLa cells in vitro as measured via MTT assay.
All synthesized compounds were purified to greater than 98% purity prior to cell testing. HeLa cell viability assays were performed using an MTT assay.
The general structure of the ROS-activated compounds disclosed herein was probed to determine how positions in the structure alter potency in aqueous media. Compounds were screened against HeLa cells to determine IC50 values. Cell viability was monitored by an MTT dye that forms a purple formazan product in viable cells that are undergoing metabolism. […] Errors reported are between two separate experiments; independent curve-fitting had r greater than 0.95).

[5] = system: NCI-60 cell panel; assay: NCI-60 cell panel, Sulforhodamine B growth inhibition; format: cell-based
Protocol: as §3

[6] = system: RPMI-8226; assay: NCI-60 Sulforhodamine B growth inhibition, RPMI-8226; format: cell-based; details: Homo sapiens; RPMI-8226, plasmacytoma and myeloma cell line
Protocol: as §3, §4

[7] = system: renal cancer cells; assay: Sulforhodamine B total protein content assay, renal cancer cell lines (NCI); format: cell-based; details: Homo sapiens; median over seven renal cancer cell lines
Protocol: as §1

[8] = system: SN12C; assay: Sulforhodamine B total protein content assay, SN12C; format: cell-based; details: Homo sapiens; SN12C renal cancer cells
Protocol: as §1

[9] = system: CAKI-1; assay: Sulforhodamine B total protein content assay, CAKI-1; format: cell-based; details: Homo sapiens; CAKI-1 renal cancer cells
Protocol: as §1

[10] = system: SR-91; assay: NCI-60 Sulforhodamine B growth inhibition, SR-91; format: cell-based; details: SR-91, acute lymphoblastic leukemia model
Protocol: as §3, §4

[11] = system: MA9.3 AML cells; assay: AML cytotoxicity, MTT assay on MA9.3 AML cell line; format: cell-based, human; details: Homo sapiens, read-out: IC50 against MA9.3 AML cells
Text: as §2

IC50 [1]: 360 ± 90 nM | IC50 [4]: 11000 nM | IC50 [8]: 21000 ± 1200 nM | IC50 [9]: 370 ± 40 nM
SMILES: Oc1ccc(OCCN(CCOc2ccc(O)cc2)c2ccccc2)cc1 [Compound 25, 4,4′-(2,2′-(phenylazanediyl)bis(ethane-2,1-diyl)bis(oxy))diphenol]
IC50 [2]: 16000 ± 1000 nM | GI50 [3]: 1300 nM | range of GI50 values ([5]; distribution of GI50 over NCI-60 panel): 55 fold | GI50 ([5]; median over NCI-60 panel, Sulforhodamine B): 3900 nM | GI50 [6]: 3800 nM | IC50 [7]: 1800 nM | GI50 [10]: 470 nM | IC50 [11]: 3000 ± 200 nM
